For 25 compounds, IC50 results are on record in patent publication US20140135319A1, “6-SUBSTITUTED IMIDAZOPYRAZINES FOR USE AS MPS-1 AND TKK INHIBITORS IN THE TREATMENT OF HYPERPROLIFERATIVE DISORDERS” (BAYER INTELLECTUAL PROPERTY GMBH, priority 2010, published 2014).

The target in this assay is T1, human kinase Mps-1 (Homo sapiens, UniProt P33981).
T1 construct: N-terminally GST-tagged human full length recombinant Mps-1 kinase; GST (N); purchased Invitrogen, Karslruhe, Germany PV4071
T1 sequence (P33981 1-857): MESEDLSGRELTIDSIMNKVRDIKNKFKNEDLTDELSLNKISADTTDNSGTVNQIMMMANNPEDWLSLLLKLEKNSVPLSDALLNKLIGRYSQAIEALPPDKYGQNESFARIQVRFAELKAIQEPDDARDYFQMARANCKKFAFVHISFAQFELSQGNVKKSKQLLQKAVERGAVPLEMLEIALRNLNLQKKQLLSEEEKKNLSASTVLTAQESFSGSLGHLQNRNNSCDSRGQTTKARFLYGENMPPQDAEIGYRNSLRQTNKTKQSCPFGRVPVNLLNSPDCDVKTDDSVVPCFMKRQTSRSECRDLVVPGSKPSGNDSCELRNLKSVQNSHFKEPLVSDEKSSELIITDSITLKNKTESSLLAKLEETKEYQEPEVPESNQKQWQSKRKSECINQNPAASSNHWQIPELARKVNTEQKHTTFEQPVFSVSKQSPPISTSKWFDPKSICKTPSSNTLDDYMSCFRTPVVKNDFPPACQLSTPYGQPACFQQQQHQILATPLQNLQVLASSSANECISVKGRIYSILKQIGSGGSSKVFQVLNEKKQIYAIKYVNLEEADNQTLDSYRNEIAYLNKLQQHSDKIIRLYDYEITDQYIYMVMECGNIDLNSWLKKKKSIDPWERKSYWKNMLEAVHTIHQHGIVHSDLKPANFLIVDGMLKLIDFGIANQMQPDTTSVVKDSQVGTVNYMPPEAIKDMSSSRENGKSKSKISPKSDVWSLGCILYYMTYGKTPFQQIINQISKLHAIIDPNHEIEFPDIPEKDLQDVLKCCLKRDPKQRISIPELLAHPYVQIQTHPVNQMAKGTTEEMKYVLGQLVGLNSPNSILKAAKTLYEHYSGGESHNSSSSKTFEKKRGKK
Nature of the assay: Mps-1 kinase assay (TR-FRET). It is filed as biochemical. The following applies: GST-tagged human full length recombinant Mps-1; 10 μM ATP; 1 μM peptide substrate; 60 min at 22° C. Put shortly:
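TR-FRET read-out: after 1 h binding at 22° C, Eu-labelled anti-phospho-Ser/Thr antibody transfers to SA-XLent on the phosphorylated biotinylated peptide. The enzyme is GST-tagged full-length human Mps-1, typically about 1 nM final, in the linear range.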
On the technique in general: TR-FRET usually uses a lanthanide donor and a delayed reading to cut background.
The term IC50 denotes the concentration that gives 50% inhibition. Take `Cc1cc(-c2cnc3c(NCCC(F)(F)F)nc(-c4cnn(C)c4)cn23)ccc1C(=O)NC1CC1` [Example 1-69, N-cyclopropyl-2-methyl-4-{6-(1-methyl-1H-pyrazol-4-yl)-8-[(3,3,3-trifluoropropyl)amino]imidazo[1,2-a]pyrazin-3-yl}benzamide]: the IC50 came out at 3.8 nM. The figure for `Cc1cc(-c2cnc3c(NCCC(F)(F)F)nc(-c4cccnc4)cn23)ccc1C(=O)NC1CC1` [Example 1-70, N-cyclopropyl-2-methyl-4-{6-(pyridin-3-yl)-8-[(3,3,3-trifluoropropyl)amino]imidazo[1,2-a]pyrazin-3-yl}benzamide] is 4.2 nM; for `Cc1cc(-c2cnc3c(NCCC(F)(F)F)nc(-c4ccoc4)cn23)ccc1C(=O)NC1CC1` [Example 1-71, N-cyclopropyl-4-{6-(furan-3-yl)-8-[(3,3,3-tri-fluoropropyl)amino]imidazo[1,2-a]pyrazin-3-yl}-2-methylbenzamide] it is 3.9 nM; for `CCOc1ccc(-c2cn3c(-c4ccc(C(=O)NC5CC5)c(C)c4)cnc3c(NCCC(F)(F)F)n2)cn1` [Example 1-72, N-cyclopropyl-4-{6-(6-ethoxypyridin-3-yl)-8-[(3,3,3-trifluoropropyl)amino]imidazo[1,2-a]pyrazin-3-yl}-2-methyl-benzamide] it is 9.9 nM. The figure for `Cc1cc(-c2cnc3c(NCCC(F)(F)F)nc(-c4cncnc4)cn23)ccc1C(=O)NC1CC1` [Example 1-73, N-cyclopropyl-2-methyl-4-{6-(pyrimidin-5-yl)-8-[(3,3,3-trifluoropropyl)amino]imidazo[1,2-a]pyrazin-3-yl}benzamide] is 21.4 nM. For `Cc1cc(-c2cnc3c(NCCC(F)(F)F)nc(-c4c(C)noc4C)cn23)ccc1C(=O)NC1CC1` [Example 1-74, N-cyclopropyl-4-{6-(3,5-dimethyl-1,2-oxazol-4-yl)-8-[(3,3,3-trifluoro-propyl)amino]imidazo [1,2-a]pyrazin-3-yl}-2-methylbenzamide], the IC50 was found to be 4.1 nM. On to `Cc1cc(-c2cnc3c(NCCC(F)(F)F)nc(-c4cccn4C)cn23)ccc1C(=O)NC1CC1` [Example 1-75, N-cyclopropyl-2-methyl-4-{6-(1-methyl-1H-pyrrol-2-yl)-8-[(3,3,3-trifluoro-propyl)amino]imidazo [1,2-a]pyrazin-3-yl} benzamide], for which the IC50 is 3.8 nM. Regarding `Cc1cc(-c2cnc3c(NCCC(F)(F)F)nc(C4=CCNCC4)cn23)ccc1C(=O)NC1CC1` [Example 1-76, N-cyclopropyl-2-methyl-4-{6-(1,2,3,6-tetrahydro-pyridin-4-yl)-8-[(3,3,3-trifluoropropyl)amino]imidazo[1,2-a]pyrazin-3-yl}benzamide], the IC50 worked out at 13 nM. The same measure for `Cc1cc(-c2cnc3c(NCCC(F)(F)F)nc(-c4cc[nH]n4)cn23)ccc1C(=O)NC1CC1` [Example 1-77, N-cyclopropyl-2-methyl-4-{6-(1H-pyrazol-3-yl)-8-[(3,3,3-trifluoropropyl)amino]imidazo[1,2-a]pyrazin-3-yl}benzamide]: 3.3 nM. The same measure for `Cc1cc(-c2cnc3c(NCCC(F)(F)F)nc(-c4cn[nH]c4)cn23)ccc1C(=O)NC1CC1` [Example 1-78, N-cyclopropyl-2-methyl-4-{6-(1H-pyrazol-4-yl)-8-[(3,3,3-trifluoro-propyl)amino]imidazo [1,2-a]pyrazin-3-yl} benzamide]: 4.7 nM; for `Cc1cc(-c2cnc3c(NCCC(F)(F)F)nc(C4=CCSCC4)cn23)ccc1C(=O)NC1CC1` [Example 1-79, N-cyclopropyl-4-{6-(3,6-dihydro-2H-thiopyran-4-yl)-8-[(3,3,3-trifluoro-propyl)amino]imidazo [1,2-a]pyrazin-3-yl}-2-methylbenzamide]: 2.8 nM. The same measure for `O=C(NC1CC1)c1ccc(-c2cnc3c(NCCCO)nc(-c4ccncc4)cn23)cc1` [Example 1-85, N-cyclopropyl-4-{8-[(3-hydroxypropyl)amino]-6-(pyridin-4-yl)imidazo[1,2-a]pyrazin-3-yl}benzamide]: 9.1 nM.

Regarding `N#CCCNc1nc(-c2cccc(CC(N)=O)c2)cn2c(-c3ccc(C(=O)NC4CC4)cc3)cnc12` [Example 1-86, 4-{6-[3-(2-amino-2-oxo-ethyl)phenyl]-8-[(2-cyano-ethyl)amino]imidazo[1,2-a]pyrazin-3-yl}-N-cyclo-propylbenzamide], the IC50 turned out to be 3.9 nM. The figure for `Cc1ccc(-c2cn3c(-c4ccc(C(=O)NC5CC5)cc4)cnc3c(NCC(C)C)n2)cc1CC(N)=O` [Example 1-87, 4-{6-[3-(2-amino-2-oxoethyl)-4-methylphenyl]-8-(isobutyl-amino)imidazo[1,2-a]pyrazin-3-yl}-N-cyclopropyl-benzamide] is 2.3 nM; for `CC(C)CNc1nc(-c2cccc(CC(=O)O)c2)cn2c(-c3ccc(C(=O)NC4CC4)cc3)cnc12` [Example 1-88, (3-{3-[4-(cyclopropyl-carbamoyl)phenyl]-8-(iso-butylamino)imidazo[1,2-a]pyrazin-6-yl}phenyl)acetic acid] it is 50.3 nM.

For `NC(=O)Cc1cccc(-c2cn3c(-c4ccc(C(=O)NC5CC5)cc4)cnc3c(NCCCO)n2)c1` [Example 1-89, 4-{6-[3-(2-amino-2-oxo-ethyl)phenyl]-8-[(3-hydroxy-propyl)amino]imidazo[1,2-a]pyrazin-3-yl}-N-cyclopropyl-benzamide], the IC50 worked out at 4.8 nM. The figure for `CC(C)(O)CNc1nc(-c2ccncc2)cn2c(-c3ccc(C(=O)NC4CC4)cc3)cnc12` [Example 1-90, N-cyclopropyl-4-{8-[(2-hydroxy-2-methylpropyl)amino]-6-(pyridin-4-yl)imidazo[1,2-a]pyrazin-3-yl} benzamide] is 5 nM; for `CC(C)(O)CNc1nc(-c2cccc(CC(N)=O)c2)cn2c(-c3ccc(C(=O)NC4CC4)cc3)cnc12` [Example 1-91, 4-{6-[3-(2-Amino-2-oxo-ethyl)phenyl]-8-[(2-hydroxy-2-methylpropyl)amino]imidazo[1,2-a]pyrazin-3-yl}-N-cyclopropylbenzamide] it is 4 nM; for `Cn1nccc1CNc1nc(-c2cccc(CC(N)=O)c2)cn2c(-c3ccc(C(=O)NC4CC4)cc3)cnc12` [Example 1-92, 4-(6-[3-(2-Amino-2-oxo-ethyl)phenyl]-8-{[(1-methyl-1H-pyrazol-5-yl)methyl]amino}imidazo[1,2-a]pyrazin-3-yl)-N-cyclopropyl benzamide] it is 3.8 nM. The figure for `Cn1cc(CNc2nc(-c3cccc(CC(N)=O)c3)cn3c(-c4ccc(C(=O)NC5CC5)cc4)cnc23)cn1` [Example 1-93, 4-(6-[3-(2-Amino-2-oxo-ethyl)phenyl]-8-{[(1-methyl-1H-pyrazol-4-yl)methyl]amino}imidazo[1,2-a]pyrazin-3-yl)-N-cyclopropyl benzamide] is 4.9 nM; for `Cn1ccc(CNc2nc(-c3cccc(CC(N)=O)c3)cn3c(-c4ccc(C(=O)NC5CC5)cc4)cnc23)n1` [Example 1-94, 4-(6-[3-(2-Amino-2-oxo-ethyl)phenyl]-8-{[(1-methyl-1H-pyrazol-3-yl)methyl]amino}imidazo[1,2-a]pyrazin-3-yl)-N-cyclopropyl benzamide] it is 4.9 nM; for `NCCCCNc1nc(-c2cccc(CC(N)=O)c2)cn2c(-c3ccc(C(=O)NC4CC4)cc3)cnc12` [Example 1-95, 4-{8-[(4-Aminobutyl)amino]-6-[3-(2-amino-2-oxoethyl)phenyl]imidazo[1,2-a]pyrazin-3-yl}-N-cyclo-propylbenzamide] it is 19.2 nM.

As to `NCCCCCNc1nc(-c2cccc(CC(N)=O)c2)cn2c(-c3ccc(C(=O)NC4CC4)cc3)cnc12` [Example 1-96, 4-{6-[3-(2-Amino-2-oxo-ethyl)phenyl]-8-[(5-amino-pentyl)amino]imidazo[1,2-a]pyrazin-3-yl}-N-cyclo-propylbenzamide], the IC50 is 5.6 nM. The same measure for `Cn1nccc1-c1cn2c(-c3ccc(C(=O)NC4CC4)cc3)cnc2c(NCC(C)(C)O)n1` [Example 1-97, N-cyclopropyl-4-{8-[(2-hydroxy-2-methylpropyl)amino]-6-(1-methyl-1H-pyrazol-5-yl)imidazo[1,2-a]pyrazin-3-yl}benzamide]: 17.8 nM.

In the case of `Cn1nccc1-c1cn2c(-c3ccc(C(=O)NC4CC4)c(Cl)c3)cnc2c(NCCCN)n1` [Example 1-98, 4-{8-[(3-Aminopropyl)amino]-6-(1-methyl-1H-pyrazol-5-yl)imidazo[1,2-a]pyrazin-3-yl}-2-chloro-N-cyclopropylbenzamide], the IC50 came out at 1340 nM.
